The assay has as its target human full-length BTK Kinase (Homo sapiens (Human), UniProt Q06187). Put plainly: Human BTK LanthaScreen Assay (TR-FRET). Conditions: 50 μM ATP, FAM-Srctide peptide substrate, read-out: BTK Inhibition IC50. The format is biochemical. The source says: Human BTK LanthaScreen Assay
Chain of human full-length BTK Kinase (Q06187 whole entry): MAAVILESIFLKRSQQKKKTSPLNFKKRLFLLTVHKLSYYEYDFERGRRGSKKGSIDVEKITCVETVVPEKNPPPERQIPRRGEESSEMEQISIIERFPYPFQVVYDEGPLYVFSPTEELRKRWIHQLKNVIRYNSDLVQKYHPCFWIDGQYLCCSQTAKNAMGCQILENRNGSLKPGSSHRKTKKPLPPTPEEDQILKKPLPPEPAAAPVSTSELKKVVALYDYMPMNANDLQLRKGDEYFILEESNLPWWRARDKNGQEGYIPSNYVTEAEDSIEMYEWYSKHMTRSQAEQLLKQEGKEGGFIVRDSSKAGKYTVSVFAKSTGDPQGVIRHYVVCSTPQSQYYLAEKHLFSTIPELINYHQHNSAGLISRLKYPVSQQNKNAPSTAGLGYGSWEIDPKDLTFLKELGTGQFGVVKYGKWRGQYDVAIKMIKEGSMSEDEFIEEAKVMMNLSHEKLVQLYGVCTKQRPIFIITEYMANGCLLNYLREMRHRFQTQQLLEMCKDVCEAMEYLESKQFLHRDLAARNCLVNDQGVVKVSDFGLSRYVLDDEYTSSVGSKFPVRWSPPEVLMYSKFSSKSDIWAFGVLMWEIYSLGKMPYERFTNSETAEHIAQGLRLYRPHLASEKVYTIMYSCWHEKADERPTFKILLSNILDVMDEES
As usually defined, the IC50 is the point on the concentration scale where inhibition reaches its midpoint. Take `N#CN1CCCC(n2nc(-c3ccc(Cc4ccc(Cl)cc4)cc3)c(C(N)=O)c2N)C1` (stereo not shown) [Example 86, 5-amino-3-[4-(4-chlorobenzyl)phenyl]-(1-cyanopiperidin-3-yl)-1H-pyrazole-4-carboxamide]: the half-maximal inhibitory concentration (IC50) was 26.8 nM.
Then `N#CN1CCCC(n2nc(-c3ccc(C(=O)c4ccccc4)cc3)c(C(N)=O)c2N)C1` (stereo not shown) [Example 87, 5-Amino-3-(4-benzoyl-phenyl)-1-(1-cyano)-piperidin-3-yl-1H-pyrazole-4-carboxylic acid amide], with 1.3 nM; and `N#CN1CCCC(n2nc(-c3ccc(C(O)c4ccccc4)cc3)c(C(N)=O)c2N)C1` (stereo not shown) [Example 88, 5-amino-1-(1-cyanopiperidin-3-yl)-3-{4-[hydroxy(phenyl)methyl]phenyl}-1H-pyrazole-4-carboxamide], with 5.7 nM.
In the case of `N#CN1CCCC(n2nc(-c3cccc(Oc4ccccc4)c3)c(C(N)=O)c2N)C1` (stereo not shown) [Example 89, 5-amino-1-(1-cyanopiperidin-3-yl)-3-(3-phenoxyphenyl)-1H-pyrazole-4-carboxamide], the IC50 was 7.7 nM.
Take `N#CN1CCCC(n2nc(-c3cccc(Cc4ccc(Cl)cc4)c3)c(C(N)=O)c2N)C1` (stereo not shown) [Example 92, 5-amino-3-[3-(4-chlorobenzyl)phenyl]-1-(1-cyanopiperidin-3-yl)-1H-pyrazole-4-carboxamide]: the 50% inhibitory concentration (IC50) was determined as 73.4 nM.
On to `N#CN1CCCC(n2nc(-c3cccc(Cc4ccc(F)cc4)c3)c(C(N)=O)c2N)C1` (stereo not shown) [Example 93, 5-amino-1-(1-cyanopiperidin-3-yl)-3-[3-(4-fluorobenzyl)phenyl]-1H-pyrazole-4-carboxamide], for which the IC50 came to 35 nM.
For the molecule `N#CN1CCCC(n2nc(-c3cccc(Oc4ccc(F)cc4)c3)c(C(N)=O)c2N)C1` (stereo not shown) [Example 94, 5-Amino-1-(1-cyanopiperidin-3-yl)-3-(3-(4-fluorophenoxy)phenyl)-1H-pyrazole-4-carboxamide], the half-maximal inhibitory concentration (IC50) amounted to 50.2 nM.
Then `N#CN1CCCC(n2nc(-c3cccc(Oc4ccc(OC(F)(F)F)cc4)c3)c(C(N)=O)c2N)C1` (stereo not shown) [Example 95, 5-Amino-1-(1-cyanopiperidin-3-yl)-3-{3-[4-(trifluoromethoxy)phenoxy]phenyl}-1H-pyrazole-4-carboxamide], with 79.2 nM; and `Cc1ccc(Oc2cccc(-c3nn(C4CCCN(C#N)C4)c(N)c3C(N)=O)c2)cc1F` (stereo not shown) [Example 96, 5-amino-1-(1-cyanopiperidin-3-yl)-3-[3-(3-fluoro-4-methylphenoxy)phenyl]-1H-pyrazole-4-carboxamide], with 21.9 nM.
On to `CC(C)c1ccccc1Oc1cccc(-c2nn(C3CCCN(C#N)C3)c(N)c2C(N)=O)c1` (stereo not shown) [Example 97, 5-amino-1-(1-cyanopiperidin-3-yl)-3-[3-(2-isopropylphenoxy)phenyl]-1H-pyrazole-4-carboxamide], for which the half-maximal inhibitory concentration (IC50) turned out to be 52.8 nM.
For `Cc1ccc(Oc2cccc(-c3nn(C4CCCN(C#N)C4)c(N)c3C(N)=O)c2)cc1` (stereo not shown) [Example 98, 5-amino-1-(1-cyanopiperidin-3-yl)-3-[3-(4-methylphenoxy)phenyl]-1H-pyrazole-4-carboxamide] the value was 27.3 nM.
In the case of `Cc1cc(Oc2cccc(-c3nn(C4CCCN(C#N)C4)c(N)c3C(N)=O)c2)ccc1Cl` (stereo not shown) [Example 99, 5-amino-3-[3-(4-chloro-3-methylphenoxy)-phenyl]-1-(1-cyanopiperidin-3-yl)-1H-pyrazole-4-carboxamide], the IC50 came out at 15.6 nM.
Then `CC(C)c1ccc(Oc2cccc(-c3nn(C4CCCN(C#N)C4)c(N)c3C(N)=O)c2)cc1` (stereo not shown) [Example 100, 5-amino-1-(1-cyanopiperidin-3-yl)-3-[3-(4-isopropylphenoxy)phenyl]-1H-pyrazole-4-carboxamide], with 16.3 nM; and `Cc1cc(Oc2cccc(-c3nn(C4CCCN(C#N)C4)c(N)c3C(N)=O)c2)ccc1C(C)C` (stereo not shown) [Example 101, 5-amino-1-(1-cyanopiperidin-3-yl)-3-[3-(4-isopropyl-3-methylphenoxy)phenyl]-1H-pyrazole-4-carboxamide], with 5.3 nM.
`N#CN1CCCC(n2nc(-c3cccc(Oc4ccc(F)c(F)c4)c3)c(C(N)=O)c2N)C1` (stereo not shown) [Example 105, 5-amino-1-(1-cyanopiperidin-3-yl)-3-[3-(3,4-difluorophenoxy)phenyl]-1H-pyrazole-4-carboxamide]: the IC50 is 55.5 nM.
For `N#CN1CCCC(n2nc(-c3cccc(Oc4ccc(OC(F)(F)F)c(F)c4)c3)c(C(N)=O)c2N)C1` (stereo not shown) [Example 106, 5-amino-1-(1-cyanopiperidin-3-yl)-3-{3-[3-fluoro-4-(trifluoromethoxy)phenoxy]phenyl}-1H-pyrazole-4-carboxamide] the value was 58 nM; for `N#CN1CCCC(n2nc(-c3ccc(Oc4ccccc4)nc3)c(C(N)=O)c2N)C1` (stereo not shown) [Example 107, 5-amino-1-(1-cyanopiperidin-3-yl)-3-(6-phenoxypyridin-3-yl)-1H-pyrazole-4-carboxamide], 171 nM.
For `N#CN1CCCC(n2nc(-c3ccc(Oc4ccc(Cl)cn4)cc3)c(C(N)=O)c2N)C1` (stereo not shown) [Example 108, 5-amino-3-(4-((5-chloropyridin-2-yl)oxy)phenyl)-1-(1-cyanopiperidin-3-yl)-1H-pyrazole-4-carboxamide] the value was 7.8 nM; for `N#CN1CCCC(n2nc(-c3ccc(Oc4ccc(F)cn4)cc3)c(C(N)=O)c2N)C1` (stereo not shown) [Example 111, 5-amino-1-(1-cyanopiperidin-3-yl)-3-{4-[(5-fluoropyridin-2-yl)oxy]phenyl}-1H-pyrazole-4-carboxamide], 119 nM.
`Cc1ccc(Oc2ccc(-c3nn(C4CCCN(C#N)C4)c(N)c3C(N)=O)cc2)nc1` (stereo not shown) [Example 112, 5-amino-1-(1-cyanopiperidin-3-yl)-3-(4-((5-methylpyridin-2-yl)oxy)phenyl)-1H-pyrazole-4-carboxamide]: the half-maximal inhibitory concentration (IC50) stood at 16.5 nM.
For `N#CN1CCCC(n2nc(-c3ccc(Oc4ncc(F)cc4F)cc3)c(C(N)=O)c2N)C1` (stereo not shown) [Example 115, 5-amino-1-(1-cyanopiperidin-3-yl)-3-{4-[(3,5-difluoropyridin-2-yl)oxy]phenyl}-1H-pyrazole-4-carboxamide] the value was 3.7 nM; for `N#CN1CCC[C@H](n2nc(-c3ccc(Oc4cccc(C(F)(F)F)n4)cc3)c(C(N)=O)c2N)C1` [Example 117], 18.9 nM.
For `N#CN1CCC[C@H](n2nc(-c3ccc(Oc4ncc(Cl)cc4F)cc3)c(C(N)=O)c2N)C1` [Example 119, (S)-5-amino-3-(4-((5-chloro-3-fluoropyridin-2-yl)oxy)phenyl)-1-(1-cyanopiperidin-3-yl)-1H-pyrazole-4-carboxamide] the value was 60.5 nM; for `N#CN1CCCC(n2nc(-c3ccc(Oc4ccc(F)cc4)cc3Cl)c(C(N)=O)c2N)C1` (stereo not shown) [Example 120, 5-amino-3-[2-chloro-4-(4-fluorophenoxy)phenyl]-1-(1-cyanopiperidin-3-yl)-1H-pyrazole-4-carboxamide], 141 nM; for `C[C@H]1CC[C@@H](n2nc(-c3ccc(Oc4ccc(F)cc4F)cc3)c(C(N)=O)c2N)CN1C#N` [Example 122, 5-amino-1-[(3R,6S)-1-cyano-6-methylpiperidin-3-yl]-3-[4-(2,4-difluorophenoxy)phenyl]-1H-pyrazole-4-carboxamide], 0.46 nM.
Then `C[C@@H]1CC[C@H](n2nc(-c3ccc(Oc4ccc(F)cc4F)cc3)c(C(N)=O)c2N)CN1C#N` [Example 123, 5-amino-1-[(3S,6R)-1-cyano-6-methylpiperidin-3-yl]-3-[4-(2,4-difluorophenoxy)phenyl]-1H-pyrazole-4-carboxamide], with 396 nM.
In the case of `N#CN1CCCC(n2nc(-c3ccc(Sc4ccc(Cl)cc4)cc3)c(C(N)=O)c2N)C1` (stereo not shown) [Example 124, 5-amino-3-{4-[(4-chlorophenyl)thio]phenyl}-1-(1-cyanopiperidin-3-yl)-1H-pyrazole-4-carboxamide], the IC50 is 0.74 nM.
Take `N#CN1CCCC(n2nc(-c3ccc(Sc4ccccc4)cc3)c(C(N)=O)c2N)C1` (stereo not shown) [Example 125, 5-amino-1-(1-cyanopiperidin-3-yl)-3-[4-(phenylthio)phenyl]-1H-pyrazole-4-carboxamide]: the IC50 worked out at 0.4 nM.
For `C/C=C/C(=O)N1CCCC(n2nc(-c3ccc(Oc4ccccc4)cc3)c(C(N)=O)c2N)C1` (stereo not shown) [Example 128, 5-amino-1-{1-[(2E)-but-2-enoyl]piperidin-3-yl}-3-(4-phenoxyphenyl)-1H-pyrazole-4-carboxamide] the value was 4.5 nM; for `NC(=O)c1c(-c2ccc(Oc3ccccc3)cc2)nn([C@@H]2CCCN(C(=O)/C=C/CO)C2)c1N` [Example 129, 5-amino-1-{(3R)-1-[(2E)-4-hydroxybut-2-enoyl]piperidin-3-yl}-3-(4-phenoxyphenyl)-1H-pyrazole-4-carboxamide], 1 nM.
For `NC(=O)c1c(-c2ccc(Oc3ccc(Cl)cc3)cc2)nn([C@@H]2CCCN(C(=O)/C=C/CF)C2)c1N` [Example 132, 5-amino-3-[4-(4-chlorophenoxy)phenyl]-1-{(3R)-1-[(2E)-4-fluorobut-2-enoyl]piperidin-3-yl}-1H-pyrazole-4-carboxamide] the value was 1.1 nM; for `NC(=O)c1c(-c2ccc(Oc3ccc(Cl)cc3)cc2)nn([C@@H]2CCCN(C(=O)/C=C/C(F)F)C2)c1N` [Example 133, 5-amino-3-[4-(4-chlorophenoxy)phenyl]-1-{(3R)-1-[(2E)-4,4-difluorobut-2-enoyl]piperidin-3-yl}-1H-pyrazole-4-carboxamide], 0.38 nM; for `C=C(F)C(=O)N1CCC[C@@H](n2nc(-c3ccc(Oc4ccc(Cl)cc4)cc3)c(C(N)=O)c2N)C1` [Example 134, 5-amino-3-[4-(4-chlorophenoxy)phenyl]-1-[(3R)-1-(2-fluoroacryloyl)piperidin-3-yl]-1H-pyrazole-4-carboxamide], 5 nM.
Then `N#C/C=C/C(=O)N1CCC[C@@H](n2nc(-c3ccc(Oc4ccc(Cl)cc4)cc3)c(C(N)=O)c2N)C1` [Example 135, 5-amino-3-[4-(4-chlorophenoxy)phenyl]-1-{(3R)-1-[(2E)-3-cyanoprop-2-enoyl]piperidin-3-yl}-1H-pyrazole-4-carboxamide], with 1.2 nM.

These data come from patent US10266513B2 (Pfizer Inc., priority 2012, dated 2019).
